# Measured values: patent US11149277B2, “Method of producing enriched exosomes” (National Health Research Institutes, priority 2016, dated 2021)
# Legend:
# NAMECs [1] = test: NanoSight Nanoparticle Tracking Analysis of CM-P4 fractions of NAMEC culture; assay type: cell-based, human; conditions: CM-P4 fraction, 4 days; PGE2 1 μM
# Description: FIG. 1 includes a TEM image and a graph. (A) is a TEM image of the P4 medium fraction of NAMECs treated with GW627368X (GW) for 4 days. Scale bar, 1 μm. (B) is a graph showing the number of particles in the CM-P4 fractions of NAMEC culture counted by using NanoSight Nanoparticle Tracking analysis. Top panel: Quantification of exosome release is shown as the ratio of [P4 GAPDH marker level]/[cell number]. Data are means±SEM (n=3). *P≤0.05. **P≤0.005. Bottom table: Quantification of exosome release is shown as the number of particles of the CM-P4 fractions released per cell measured by nanoparticle tracking analysis.
# (§1) The isolated human mammary epithelial stem cells (NAMECs) were cultured in mammary epithelial cell basal medium (250 ml MCDB-170, 250 ml DMEM-F12, 1.2 g sodium bicarbonate, 2.5 μg EGF, 0.25 mg Hydrocortisone, 2.5 mg insulin, 35 mg BPE) with or without containing EP4 antagonist, i.e., GW627368X (GW) at 1 μg/ml, or AH23848 (AH) at 4 μg/ml, for 4 days. The culture medium was supplied with 0.5 μg/ml of GW or 2 μg/ml of AH23848 at the third day of the culturing period. For the induction of EP4 antagonist-induced exosomes from mouse mammary epithelial cells, cells were cultured in a medium containing 10 μg/ml of GW for 4 days.
# The culture media were centrifuged at 300 g for 5 min to remove cells (P1), at 2,000 g for 20 min (P2), then at 10,000 g for 30 min (P3) all at 4° C. Dead cells and cell debris were removed at 300 g (P1) and 1200 g (P2). Finally, exosomes (P4) were separated from the supernatant by centrifugation at 110,000 g for 60 min. The P4 exosome pellet was washed once in PBS and then re-suspended in PBS for further application.
# NAMECs [2] = test: Western blot of exosome markers and proteins in CM-P4 fractions of NAMECs; assay type: cell-based, human; conditions: AH23848 0.4, 2, 4 μg/ml; AH6809 0.8, 4, 8 μg/ml; GW 1 μg/ml
# Description: FIG. 2 includes graphs and blots showing analyses of GW-treated NAMEC P4 fractions. CM-P4 GW-treated NAMECs were collected and subjected to (A) NanoSight Nanoparticle Tracking Analysis (NTA) and (B) Dynamic Light Scattering/Zeta Potential Analysis (DLS). […] D: particle diameter. RN: relative number. (C) is a blot showing the amounts of the CD44 stem cell marker and the CD81, CD9, TSG101, Alix, HSP70 and GAPDH exosome markers measured in the indicated CM-P4 fractions and cell lysates. The culture media and cell lysates were collected from the same number of NAMECs treated with vehicle (Crl), GW627368X (GW) or PGE2 (1 μM) for 4 days. (D) is a blot showing the amounts of the GAPDH and CD81 exosome markers and the CD44 stem cell marker measured in the CM-P4 fraction of NAMECs (CD44hi/CD24− stem cells) or CD44lo/CD24+ non-stem cells (HMLE cells) treated with vehicle (Crl) or GW for 2 days. 1×: P4 exosome fraction released by 1×10^6 cells; 2×: P4 exosome fraction released by 2×10^6 cells. […] (E) is a blot showing that the CD44 stem cell marker and GAPDH and CD81 exosome markers were measured in the indicated P4 conditioned medium fractions of NAMECs treated with vehicle (Crl), GW627368X (GW, 1 μg/ml), AH23848 (EP4 antagonist; 0.4, 2, 4 μg/ml), or AH6809 (EP1/2/3 antagonist; 0.8, 4, 8 μg/ml). (F) is a blot showing the HSP70, GAPDH and CD81 exosome markers measured in the indicated CM-P4 of NAMECs, NAMEC-shEP4-1 cells, and NAMEC-shEP4-2 cells treated with vehicle or with doxycycline (Dox, 2 μg/ml) (top panel). Doxyclycline (Dox) induced the production EP4 shRNA in NAMEC-shEP4 cells (bottom panel).
# The P4 exosome fractions and cell lysates were collected from NAMECs treated with vehicle (Crl), GW627368X (GW), or PGE2 for 4 days. 1×: P4 exosome fraction released by 2.5×10^5 cells; 5×: P4 exosome fraction released by 12.5×10^5 cells. Hg: Hg-integrin β1, Lg: Lg-integrin β1, H: H-integrin α6, L: L-integrin α6, pg: pg-LRP6, g: g-LRP6, Ng: Ng-LRP6.
# as §1
# The culture media were centrifuged at 300 g for 5 min to remove cells (P1), at 2,000 g for 20 min (P2), then at 10,000 g for 30 min (P3) all at 4° C. Dead cells and cell debris were removed at 300 g (P1) and 1200 g (P2). […]
# NAMEC-R cells = test: NTA of EV release from Ras-transformed NAMEC-R cells; assay type: cell-based; conditions: CM-P4, 4 days; GW 1 μg/ml; SQ 120 and 240 nM
# Procedure: Vesicles in the P4 fractions were counted using NTA. Data are means±SEM (n=6). ***P≤0.001; (B) The Alix, TSG101, CD63, CD81 and GAPDH exosome markers were measured in the CM-P4 fractions of NAMEC-R cells treated with vehicle (Crl), GW627368X (GW, 1 μg/ml), SQ 29,548 (SQ120/SQ240; 120 nM and 240 nM); (C) The mesenchymal marker N-cadherin, CSC markers and exosome markers were analyzed in the conditioned medium P4 fraction derived from equal numbers of vehicle-treated NAMEC-R cells (Crl), GW-treated NAMEC-R cells (GW, 1 μg/ml GW627368X for 4 days) and SQ 29,548-treated NAMEC-R cells (SQ120/SQ240; 120 nM and 240 nM for 4 days). The longer GAPDH(L) and CD81(L) exposures show the low, but detectable, presence of GAPDH and CD81 in the conditioned medium P4 fraction of vehicle-treated NAMEC-R cells.
# We further investigated whether EP4 antagonism and TP receptor antagonism (as GW has partial affinity to the human TP receptor) affected EV release from transformed mammary epithelial stem cells. Four-day conditioned media of vehicle, GW-, or SQ (a TP antagonist)-treated Ras-transformed NAMEC mammary stem cells (NAMEC-R) were collected and subjected to differential ultracentrifugation to isolate EVs released by the cells. The numbers of vesicles in CM-P4 fractions were determined using NTA (FIG. 20, A). EP4 antagonism elicited release of ˜5000 vesicles per NAMEC-R cell. […]
Structure (SMILES),exosome release by exosome markers in CM-P4 fractions (NAMECs [2]),other results
"CCCCC[C@H](O)/C=C/[C@H]1[C@H](O)CC(=O)[C@@H]1C/C=C\CCCC(=O)O [PGE2, prostaglandin E2]",,concentration of released membrane vesicles (NAMECs [1]): ~0.5×10^4 particle/cell
O=C(O)CC/C=C\CC[C@H]1[C@H](N2CCOCC2)C(=O)C[C@H]1OCc1ccc(-c2ccccc2)cc1 [AH23848],induced in a dose-dependent manner,
"O=C(O)CCC/C=C\C[C@@H]1[C@H](CNNC(=O)Nc2ccccc2)[C@H]2CC[C@@H]1O2 [SQ 29,548]",,vesicles released per cell (NAMEC-R cells): ~1000 vesicles per cell
CC(C)Oc1ccc2c(=O)c3cc(C(=O)O)ccc3oc2c1 [AH6809],not significantly induced,
